Test system: naïve nonsenescent IMR-90 fibroblasts
Experiment: Conditioned media from senescent cells applied to naive IMR-90 fibroblasts (Col1a2, ACTA2 qPCR)
Format: cell-based, human
Experimental: RNA was extracted from cells or tissues using commercially available kits (Isolate II—Bioline for cells; Direct-zol—Zymo for tissues) according to the manufacturer's instructions. cDNA synthesis was performed using a High Capacity cDNA Reverse Transcription Kit (Thermo Fisher) according to the manufacturer's instructions. Quantitative PCR was performed on a LightCycler 480 II (Roche) using primers and probes designed for the Universal Probe Library. Primers and probes used for human transcripts were ACTB: 5′-CCAACCGCGAGAAGATGA (SEQ ID NO:1), 5′-TCCATCACGATGCCAGTG (SEQ ID NO:2), Probe #64; TUBA: 5′-cttcgtctccgccatcag (SEQ ID NO:3), 5′-ttgccaatctggacacca (SEQ ID NO:4), Probe #58; ALOX5: 5′-[…] (SEQ ID NO:5), 5′-[…] (SEQ ID NO:6), Probe #64; ALOX5AP: 5′-ggtctgcggggctacttt (SEQ ID NO:7), 5′-[…] (SEQ ID NO:8), Probe #18; ALOX12: 5′-[…] (SEQ ID NO:9), 5′-agccaggtcgtcaggag (SEQ ID NO:10), Probe #32; ALOX15: 5′-[…] (SEQ ID NO:11), 5′-[…] (SEQ ID NO:12), Probe #76; ALOX15B: 5′-[…] (SEQ ID NO:13), 5′-actgggaggcgaagaagg (SEQ ID NO:14), Probe #51; AKR1C1: 5′-catgcctgtcctgggattt (SEQ ID NO:15), 5′-[…] (SEQ ID NO:16), Probe #49; AKR1C2: 5′-ctatgcgcctgcagaggt (SEQ ID NO:17), 5′-[…] (SEQ ID NO:18), Probe #31; AKR1C3: 5′-[…] (SEQ ID NO:19), 5′-[…] (SEQ ID NO:20), Probe #78; CYSLTR2: 5′-[…] (SEQ ID NO:21), 5′-[…] (SEQ ID NO:22), Probe #18; DPEP1: 5′-gacgtcctgaggctggtg (SEQ ID NO:23), 5′-[…] (SEQ ID NO:24), Probe #9 (SEQ ID NO:25), ELOVL2: 5′-[…] (SEQ ID NO:26), 5′-[…] (SEQ ID NO:27), Probe #53; ELOVL4: 5′-catttggcccatggattc (SEQ ID NO:28), 5′-[…] (SEQ ID NO:29), Probe #31; ELOVL5: 5′-cccttccatgcgtccata (SEQ ID NO:30), 5′-[…] (SEQ ID NO:31), Probe #31; EPHX2: 5′-ttctgctggacaccctgaa (SEQ ID NO:32), 5′-[…] (SEQ ID NO:33), Probe #45; GPX4: 5′-ttcccgtgtaaccagttcg (SEQ ID NO:34), 5′-[…] (SEQ ID NO:35), Probe #36; LTA4H: 5′-ctgctctcacggtccagtc (SEQ ID NO:36), 5′-[…] (SEQ ID NO:37), Probe #64; LTBR2: 5′-[…] (SEQ ID NO:38), 5′-[…] (SEQ ID NO:39), Probe #33; LTC4S: 5′-[…] (SEQ ID NO:40), 5′-[…] (SEQ ID NO:41), Probe #18; PTGDS: 5′-[…] (SEQ ID NO:42), 5′-[…] (SEQ ID NO:43), Probe #36; PTGES: 5′-agagatgcctgcccacag (SEQ ID NO:44), 5′-tggccaccacgtacatctt (SEQ ID NO:45), Probe #4; PTGES2: 5′-[…] (SEQ ID NO:46), 5′-[…] (SEQ ID NO:47), Probe #49; PTGES3 (SEQ ID NO:48), 5′-[…] (SEQ ID NO:49), 5′-[…] (SEQ ID NO:50), Probe #48; PTGIS: 5′-[…] (SEQ ID NO:51), 5′-[…] (SEQ ID NO:52), Probe #45; PTGR1: 5′-atgatggggcagcaagtg (SEQ ID NO:53), 5′-cccatcagaaatggagtgc (SEQ ID NO:54), Probe #64; PTGS1: 5′-[…] (SEQ ID NO:55), 5′-gtggtggtccatgttcctg (SEQ ID NO:56), Probe #81; PTGS2: 5′-gatccccagggctcaaac (SEQ ID NO:57), 5′-[…] (SEQ ID NO:58), Probe #61; TBXAS1: 5′-[…] (SEQ ID NO:59), 5′-tgcctcccgtgtgaatct (SEQ ID NO:60), Probe #73; AREG: 5′-[…] (SEQ ID NO:61), 5′-[…] […]

## CS(=O)(=O)Nc1ccc([N+](=O)[O-])cc1OC1CCCCC1 [NS-398]
Day 20 CM
  decline of ACTA2 induction at Day 20 relative to Day 2: abrogated this decline

## CC(c1cc2ccccc2s1)N(O)C(N)=O (stereo not shown) [zileuton]
Day 2 CM, with or without TGF-beta, donor cells treated 24 h
  collagen expression induced by CM from senescent cells: prevented this effect
Day 20 CM in the presence of TGF-beta
  collagen expression induced by CM from senescent cells: again prevented
Regardless of time point
  smooth muscle actin expression (ACTA2): no effect
